# Experimental data published in the supplement of paper PMC10307832.
# Compound: Cc1nc(C(=O)NCC(=O)O)c(O)c2ccc(Oc3ccccc3)cc12 [FG-4592] + Nc1ncn([C@H]2C[C@H](O)[C@@H](CO)O2)c(=O)n1 [Decitabine] (partner 2 µM)
# Test: relative viability (nuclei count vs DMSO), 5 days (fraction); higher = more cells survive
# Conditions: first compound 0.08 µM
# Procedure, shortened: (§1)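 Nuclei were stained with Hoechst during a one-step fixation (final 0.05% Triton X-100, 1% formaldehyde, 1 ug/ml Hoechst) carried out 5 days after dosing, then counted on 4× images. The cells, lung cancer lines in 1536-well plates, had been dosed by pin tool the day after seeding with one drug alone or a fixed anchor-drug dose plus five library-drug doses (not always all listed) in √10 steps. Relative viability is the nuclei count in treated wells divided by that in vehicle wells, and each value is the median of duplicate plates.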
row,Cell Line,relative viability
1,ABC-1,0.87
2,NCI-H358,0.213
3,NCI-H650,0.314
4,PC-3 [JPC-3],0.836

# Same assay, conditions: first compound 0.253 µM
row,Cell Line,relative viability
1,ABC-1,1.09
2,NCI-H358,0.194
3,NCI-H650,0.275
4,PC-3 [JPC-3],0.767

# Same assay, conditions: first compound 0.8 µM
row,Cell Line,relative viability
1,NCI-H358,0.288
2,NCI-H650,0.301

# Same assay, conditions: first compound 2.53 µM
row,Cell Line,relative viability
1,ABC-1,0.898
2,NCI-H358,0.192
3,NCI-H650,0.296
4,PC-3 [JPC-3],0.844

# Same assay, conditions: first compound 8 µM
row,Cell Line,relative viability
1,ABC-1,0.957
2,NCI-H358,0.202
3,NCI-H650,0.306
4,PC-3 [JPC-3],0.911

# Compound: Cc1nc(C(=O)NCC(=O)O)c(O)c2ccc(Oc3ccccc3)cc12 [FG-4592] + NC(=O)Nc1cc(-c2cccc(F)c2)sc1C(=O)N[C@H]1CCCNC1 [AZD7762] (partner 0.2 µM)
# Test: as above
# Conditions: first compound 0.08 µM
# Procedure, shortened: as §1
row,Cell Line,relative viability
1,ABC-1,0.665
2,NCI-H358,0.44
3,NCI-H650,1.06
4,PC-3 [JPC-3],0.802

# Same assay, conditions: first compound 0.253 µM
row,Cell Line,relative viability
1,ABC-1,0.762
2,NCI-H358,0.502
3,NCI-H650,1.03
4,PC-3 [JPC-3],0.762

# Same assay, conditions: first compound 0.8 µM
row,Cell Line,relative viability
1,ABC-1,0.794
2,NCI-H358,0.55
3,NCI-H650,1.09

# Same assay, conditions: first compound 2.53 µM
row,Cell Line,relative viability
1,ABC-1,1.09
2,NCI-H358,0.502
3,NCI-H650,1.04
4,PC-3 [JPC-3],0.726

# Same assay, conditions: first compound 8 µM
row,Cell Line,relative viability
1,ABC-1,0.693
2,NCI-H358,0.458
3,NCI-H650,0.755
4,PC-3 [JPC-3],0.8

# Compound: CC1=CC(=C(N1C2=CC=C(C=C2)Cl)C)C(=O)CN3CCCCC3 [IU1-47] + O=C(c1cc(Cc2n[nH]c(=O)c3ccccc23)ccc1F)N1CCN(C(=O)C2CC2)CC1 [Olaparib] (partner 8 µM)
# Test: as above
# Conditions: first compound 0.08 µM
# Procedure, shortened: as §1
row,Cell Line,relative viability
1,ABC-1,1.14
2,NCI-H358,0.704
3,NCI-H650,0.447
4,PC-3 [JPC-3],1.19

# Same assay, conditions: first compound 0.253 µM
row,Cell Line,relative viability
1,ABC-1,1.05
2,NCI-H358,0.784
3,NCI-H650,0.426
4,PC-3 [JPC-3],1.2

# Same assay, conditions: first compound 0.8 µM
row,Cell Line,relative viability
1,ABC-1,0.816
2,NCI-H358,0.55
3,NCI-H650,0.378
4,PC-3 [JPC-3],1.14

# Same assay, conditions: first compound 2.53 µM
row,Cell Line,relative viability
1,NCI-H358,0.705
2,NCI-H650,0.4
3,PC-3 [JPC-3],1.11

# Same assay, conditions: first compound 8 µM
row,Cell Line,relative viability
1,ABC-1,0.907
2,NCI-H358,0.436
3,NCI-H650,0.413
4,PC-3 [JPC-3],1.04

# Compound: Cc1nc(C(=O)NCC(=O)O)c(O)c2ccc(Oc3ccccc3)cc12 [FG-4592] + CS(=O)(=O)N1CCN(Cc2cc3nc(-c4cccc5[nH]ncc45)nc(N4CCOCC4)c3s2)CC1 [Pictilisib] (partner 1 µM)
# Test: as above
# Conditions: first compound 0.08 µM
# Procedure, shortened: as §1
row,Cell Line,relative viability
1,ABC-1,0.778
2,NCI-H358,0.323
3,NCI-H650,0.879
4,PC-3 [JPC-3],0.717

# Same assay, conditions: first compound 0.253 µM
row,Cell Line,relative viability
1,NCI-H358,0.344
2,NCI-H650,0.916
3,PC-3 [JPC-3],0.7

# Same assay, conditions: first compound 0.8 µM
row,Cell Line,relative viability
1,ABC-1,0.55
2,NCI-H358,0.289
3,NCI-H650,0.739
4,PC-3 [JPC-3],0.59

# Same assay, conditions: first compound 2.53 µM
row,Cell Line,relative viability
1,ABC-1,0.7
2,NCI-H358,0.292
3,NCI-H650,0.801
4,PC-3 [JPC-3],0.764

# Same assay, conditions: first compound 8 µM
row,Cell Line,relative viability
1,ABC-1,0.539
2,NCI-H358,0.326
3,NCI-H650,0.872
4,PC-3 [JPC-3],0.791
